Patent US20250235547A1, “ANTIBODY-DRUG CONJUGATE” (UBE Corporation, priority 2022, published 2025)
Numbered stars: 1 amine (or outer) side, 2 acyl side, 3 side chain; on linkers, the order of the positions; unused ones are H or OH. Square brackets hold non-standard residues; d marks the D form. Peptide text beside a SMILES is read from it. * marks the point of attachment. X4 = COC(=O)C1OC(O[C@@H](c2ccccc2)[C@@H](C)N*)C(OC(C)=O)C(OC(C)=O)C1OC(C)=O; Dolaproine = CO[C@@H]([C@@H]1CCCN1)[C@@H](C)C(=O)O; Hexanoyl(6-maleimido) = O=C1C=CC(=O)N1CCCCCC(=O)*; Propanoyl(3-maleimido) = O=C1C=CC(=O)N1CCC(=O)*; Dil = CC[C@H](C)[C@H](NC)[C@@H](CC(=O)O)OC; X3 = C[C@@H](N*)[C@@H](OP(=O)(O)O)c1ccccc1; PABC = O=C(OCc1ccc(N[*:1])cc1)[*:2]; X1 = C[C@@H](N*)[C@@H](O)c1ccccc1; hSer(lactone) = O=C1OCC[C@@H]1N*; Cit = NC(=O)NCCC[C@H](N)C(=O)O; PEG4 = NCCOCCOCCOCCOCCC(=O)O; NMeV = CN[C@H](C(=O)O)C(C)C

Biological target: T1, porcine tubulin (Sus scrofa, UniProt P02550+P02554)
T1 construct: purchased Cytoskeleton, Inc. BK011P
Test: Tubulin polymerization inhibition test
Type: biochemical
Conditions: fluorescence, 37° C., 60 minutes
Experimental: For measuring the tubulin polymerization inhibitory action, Tubulin Polymerization Assay Kit (manufactured by Cytoskeleton, Inc., BK011P) was used. A PIPES buffer containing porcine tubulin, GTP, MgCl2, EGTA, Glycerol, and a fluorescent reporter was prepared under ice-cooling as a reaction solution. The reaction solution was ice-cooled until it was used. A test compound solution was prepared by an aqueous solution containing 1.5% DMSO, and added to a 96 well plate (manufactured by Corning Inc., 3686) at 5 μL/well. The reaction solution was added thereto at 50 μL/well, the plate was placed in a microplate reader (FlexStation 3, manufactured by Molecular Device, LLC) in which the internal temperature was set to 37° C. in advance, and the fluorescence intensity measurement (excitation wavelength: 360 nm, detection wavelength: 420 nm) of each well was started. The fluorescence intensity was measured once every minute, and the measurement was continued for 60 minutes.
The tubulin polymerization inhibition rate (%) was calculated by the following equation.
Amount of fluorescence intensity increase: (average fluorescence intensity after 51 to 60 minutes from measurement start)−(average fluorescence intensity after 1 to 6 minutes from measurement start)

T1 sequence (P02554 whole entry): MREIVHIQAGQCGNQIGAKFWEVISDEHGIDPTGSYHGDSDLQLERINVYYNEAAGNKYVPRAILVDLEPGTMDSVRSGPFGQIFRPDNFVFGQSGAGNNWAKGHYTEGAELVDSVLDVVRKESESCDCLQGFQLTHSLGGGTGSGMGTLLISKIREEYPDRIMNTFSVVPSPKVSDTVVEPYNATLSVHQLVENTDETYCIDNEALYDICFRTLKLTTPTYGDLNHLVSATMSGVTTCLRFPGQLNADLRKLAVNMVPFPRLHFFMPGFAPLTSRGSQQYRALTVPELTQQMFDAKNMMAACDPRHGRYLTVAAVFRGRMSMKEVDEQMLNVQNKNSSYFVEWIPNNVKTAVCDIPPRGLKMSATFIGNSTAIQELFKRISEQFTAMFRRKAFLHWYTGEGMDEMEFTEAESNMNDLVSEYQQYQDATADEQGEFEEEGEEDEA
T1 sequence (P02550 whole entry): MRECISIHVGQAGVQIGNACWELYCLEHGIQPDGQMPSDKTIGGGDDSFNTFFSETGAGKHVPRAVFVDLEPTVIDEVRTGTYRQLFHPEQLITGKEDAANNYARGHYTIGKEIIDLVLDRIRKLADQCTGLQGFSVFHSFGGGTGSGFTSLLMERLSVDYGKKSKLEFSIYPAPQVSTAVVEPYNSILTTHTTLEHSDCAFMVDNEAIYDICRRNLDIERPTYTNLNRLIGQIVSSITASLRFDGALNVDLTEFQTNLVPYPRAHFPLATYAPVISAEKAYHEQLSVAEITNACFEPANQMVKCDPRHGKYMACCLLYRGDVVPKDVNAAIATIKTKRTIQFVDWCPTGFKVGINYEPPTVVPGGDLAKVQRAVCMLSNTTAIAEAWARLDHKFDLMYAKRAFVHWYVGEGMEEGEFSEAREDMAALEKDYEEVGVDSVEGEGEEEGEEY

For CC[C@H](C)[C@@H]([C@@H](CC(=O)N1CCC[C@H]1[C@H](OC)[C@@H](C)C(=O)N[C@H](C)[C@@H](O)c1ccccc1)OC)N(C)C(=O)[C@@H](NC(=O)[C@H](C(C)C)N(C)Cc1cc([N+](=O)[O-])ccc1F)C(C)C [Example U-008], which IC50 is on record?
The IC50 was no more than 3 µM.

With CC[C@H](C)[C@@H]([C@@H](CC(=O)N1CCC[C@H]1[C@H](OC)[C@@H](C)C(=O)N[C@H](C)[C@@H](OC1OC(C(=O)OC)C(OC(C)=O)C(OC(C)=O)C1OC(C)=O)c1ccccc1)OC)N(C)C(=O)[C@@H](NC(=O)[C@@H](NC)C(C)C)C(C)C (some centres unmarked) [Example U-014] (H-[NMeV]V[Dil][Dolaproine]-X4) as the compound, how does the IC50 read?
Its IC50 is no more than 3 µM.

System: not listed separately
Test: Retention time in HPLC of reactive precursor (index of hydrophilicity)
Type: physicochemical
Conditions: BEH C18, 0.1% formic acid water/acetonitrile gradient, 40° C.
Experimental: As an index of hydrophilicity of the reactive precursor (Compound (III)), the retention time (RT) in HPLC analysis was measured, and compared.

Which “Retention time in HPLC measurement” value does the source give for CC[C@H](C)[C@@H]([C@@H](CC(=O)N1CCC[C@H]1C(OC)[C@@H](C)C(=O)N[C@H](C)[C@@H](O)c1ccccc1)OC)N(C)C(=O)[C@@H](NC(=O)[C@H](C(C)C)N(C)C(=O)OCc1ccc(NC(=O)[C@H](CCCNC(N)=O)NC(=O)[C@@H](NC(=O)[C@H](CC(=O)NC2CCOC2=O)NC(=O)[C@H](CC(=O)N[C@H]2CCOC2=O)NC(=O)[C@H](CC(=O)N[C@H]2CCOC2=O)NC(=O)[C@H](CC(=O)N[C@H]2CCOC2=O)NC(=O)[C@H](CC(=O)NC2CCOC2=O)NC(=O)CCOCCOCCOCCOCCNC(=O)CCN2C(=O)C=CC2=O)C(C)C)cc1)C(C)C (stereo in doubt) [Reference Example 6] here?
Its value is 1.09 min.

With CC[C@H](C)[C@@H]([C@@H](CC(=O)N1CCC[C@H]1[C@H](OC)[C@@H](C)C(=O)N[C@H](C)[C@@H](O)c1ccccc1)OC)N(C)C(=O)[C@@H](NC(=O)[C@H](C(C)C)N(C)C(=O)OCc1ccc(NC(=O)[C@H](CCCNC(N)=O)NC(=O)[C@@H](NC(=O)CCCCCN2C(=O)C=CC2=O)C(C)C)cc1)C(C)C [MC-Val-Cit-PAB-MMAE, reference compound] ({Hexanoyl(6-maleimido)}-V[Cit][PABC][NMeV]V[Dil][Dolaproine]-X1) as the compound, how does the “Retention time in HPLC measurement” value read?
Its value is 1.24 min.

Which “Retention time in HPLC measurement” value does the source give for C=C1C[C@@H]2CC[C@@]34C[C@H]5O[C@H]6[C@@H](O3)[C@H]3O[C@H](CC[C@@H]3O[C@H]6[C@H]5O4)CC(=O)C[C@@H]3[C@@H](OC)[C@@H](C[C@H](O)CNC(=O)OCc4ccc(NC(=O)[C@H](CCCNC(N)=O)NC(=O)[C@@H](NC(=O)CCOCCOCCN5C(=O)C=CC5=O)C(C)C)cc4)O[C@H]3C[C@H]3O[C@@H](CC[C@@H]1O2)C[C@@H](C)C3=C [Mal-PEG2-Val-Cit-PAB-Eribulin, reference compound] here?
The value was 1.19 min.

Which “Retention time in HPLC measurement” value does the source give for CC[C@H](C)[C@@H]([C@@H](CC(=O)N1CCC[C@H]1[C@H](OC)[C@@H](C)C(=O)N[C@H](C)[C@@H](OP(=O)(O)O)c1ccccc1)OC)N(C)C(=O)[C@@H](NC(=O)[C@H](C(C)C)N(C)C(=O)OCc1ccc(NC(=O)[C@H](CCCNC(N)=O)NC(=O)[C@@H](NC(=O)[C@H](CC(=O)N[C@H]2CCOC2=O)NC(=O)CCOCCOCCOCCOCCNC(=O)CCN2C(=O)C=CC2=O)C(C)C)cc1)C(C)C [Reference Example 2] ({Propanoyl(3-maleimido)-PEG4}-D(hSer(lactone))V[Cit][PABC][NMeV]V[Dil][Dolaproine]-X3) here?
Its value is 0.96 min.

With CC[C@H](C)[C@@H]([C@@H](CC(=O)N1CCC[C@H]1[C@H](OC)[C@@H](C)C(=O)N[C@H](C)[C@@H](OP(=O)(O)OCc1ccc(NC(=O)[C@H](CCCNC(N)=O)NC(=O)[C@@H](NC(=O)[C@H](CC(=O)N[C@H]2CCOC2=O)NC(=O)CCOCCOCCOCCOCCNC(=O)[C@H](CNC(=O)CCP(=O)(O)O)N2C(=O)C=CC2=O)C(C)C)cc1)c1ccccc1)OC)N(C)C(=O)[C@@H](NC(=O)[C@H](C(C)C)N(C)C)C(C)C [Reference Example 3] as the compound, how does the “Retention time in HPLC measurement” value read?
Its value is 0.70 min.

For C=C1C[C@@H]2CC[C@@]34C[C@H]5O[C@H]6[C@@H](O3)[C@H]3O[C@H](CC[C@@H]3O[C@H]6[C@H]5O4)CC(=O)C[C@@H]3[C@@H](OC)[C@@H](C[C@@H](CCNC(=O)OCc4ccc(NC(=O)[C@H](CCCNC(N)=O)NC(=O)[C@@H](NC(=O)[C@H](CC(=O)N[C@H]5CCOC5=O)NC(=O)CCOCCOCCOCCOCCNC(=O)[C@H](CNC(=O)CCP(=O)(O)O)N5C(=O)C=CC5=O)C(C)C)cc4)OP(=O)(O)O)O[C@H]3C[C@H]3O[C@@H](CC[C@@H]1O2)C[C@@H](C)C3=C [Reference Example 26], which “Retention time in HPLC measurement” value is on record?
Its value is 0.91 min.
